Numbered stars: 1 amine (or outer) side, 2 acyl side, 3 side chain; on linkers, the order of the positions; unused ones are H or OH. Bridge positions count the residues as written; N and C are the ends. Square brackets hold non-standard residues; d marks the D form. Peptide text beside a SMILES is read from it. I, II: the chains in the order shown. Actinocin(9to1) = Cc1c2oc3c(C)ccc(C(=O)[*:1])c3nc-2c(C(=O)[*:2])c(N)c1=O; NMeV = CN[C@H](C(=O)O)C(C)C; Sar = CNCC(=O)O

Data on 4 molecules can be found in US20250179502A1, “TARGETING NEUROPILIN 2 (NRP2) IN LETHAL PROSTATE CANCER” (UNIVERSITY OF MASSACHUSETTS, priority 2022, published 2025).

In one experiment the target is T1, Nrp2-b1b2 (Homo sapiens, UniProt O60462).
T1 sequence (O60462 276-595 limits assumed): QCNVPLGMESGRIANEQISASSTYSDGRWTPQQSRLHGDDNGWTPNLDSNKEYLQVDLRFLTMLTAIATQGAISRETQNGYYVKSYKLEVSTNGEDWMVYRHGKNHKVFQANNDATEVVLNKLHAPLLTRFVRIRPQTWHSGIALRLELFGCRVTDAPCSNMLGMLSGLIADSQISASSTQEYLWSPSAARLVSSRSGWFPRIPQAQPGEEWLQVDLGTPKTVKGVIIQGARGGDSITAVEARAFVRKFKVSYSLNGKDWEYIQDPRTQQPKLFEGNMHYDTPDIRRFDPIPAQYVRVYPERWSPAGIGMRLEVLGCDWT
The note with it: cited from earlier work.

A further experiment deals with PD-L1 mRNA in PC3. The experiment in a line: PD-L1 mRNA by qPCR in PC3 cells treated with YAP inhibitor. It is filed as cell-based, human. The settings on record: Verteporfin 2 μM for 24 hours versus DMSO. Here is the method: (D) Bar graphs show fold change of PD-L1/18S mRNA in PC3 treated with DMSO versus PC3 treated with YAP inhibitor (Verteporfin) from 3 independent experiments determined by qPCR.
The following reagents were used: CellTrace™ Violet Cell Proliferation Kit (Thermo Fisher, C34571), eBioscience™ Fixable Viability Dye eFluor™ 780 (Invitrogen, 65-0865-14). Verteporfin was purchased from Tocris and used at a concentration of 2 μM for 24 hours.
Real-time qPCR. RNA extraction was accomplished using an RNA isolation kit (BS88133, Bio Basic Inc.), and cDNAs were produced using a qScript cDNA syn-thesis kit (#95047, Quantabio). SYBR Green (Applied Biosystems) was used as the qPCR master mix. Experiments were performed in triplicate and normalized to 18S. qPCR primer sequences were obtained from the Massachusetts General Hospital/Harvard Medical School PrimerBank (pga.mgh. harvard.edu/primerbank/).
(Real-time PCR tracks product formation cycle by cycle.)

On to `Cc1c2oc3c(C)ccc(C(=O)N[C@@H]4C(=O)N[C@H](C(C)C)C(=O)N5CCC[C@H]5C(=O)N(C)CC(=O)N(C)[C@@H](C(C)C)C(=O)O[C@@H]4C)c3nc-2c(C(=O)N[C@@H]2C(=O)N[C@H](C(C)C)C(=O)N3CCC[C@H]3C(=O)N(C)CC(=O)N(C)[C@@H](C(C)C)C(=O)O[C@@H]2C)c(N)c1=O` [Actinomycin D] (I: T[dV]P[Sar][NMeV] / II: T[dV]P[Sar][NMeV]; ester I:1-I:C, II:1-II:C; linker I:N-II:N via Actinocin(9to1)), for which, on Nrp2-b1b2, the AP-VEGF-C/Nrp2-b1b2 binding entry is on record as “inhibit”.
Turning to `COc1cc(C(=O)NS(=O)(=O)c2ccccc2C)ccc1Cc1cn(C)c2ccc(NC(=O)OC3CCCC3)cc12` [Zafirlukast], on Nrp2-b1b2, the AP-VEGF-C/Nrp2-b1b2 binding result is recorded as “inhibit”.
Consider Verteporfin, for which, in the experiment on PD-L1 mRNA in PC3, the “PD-L1 mRNA level (PD-L1/18S)” value is listed as “significantly reduced”.
For the molecule `Oc1cc2c(cc1O)[C@H]1c3ccccc3CN[C@@H]1CC2` (racemic) [Dihydrexidine], the AP-VEGF-C/Nrp2-b1b2 binding entry at Nrp2-b1b2 is “inhibit”.
